Measurements: patent US20190300842A1, “SYSTEMS AND METHODS FOR CONTINUOUSLY CULTURING MICROALGAE IN MIXOTROPHIC CONDITIONS” (HELIAE DEVELOPMENT, LLC, priority 2016, published 2019)
Like-named read-outs stand apart in the source and are kept apart here.

Tested on: bacterial growth
Description: An experiment was conducted to compare a semi-continuous and continuous auxostat mixotrophic microalgae operation in an open outdoor bioreactor utilizing recycled media. The outdoor bioreactor system, protocols, and type of microalgae (Chlorella) was the same as described in Example 7. Different treatments were applied to the centrate resulting from membrane filter separation. The continuous media was treated with 14 g/L acetic acid. […] The media used for semi-continuous after each partial harvest was treated with 100% filtered ozone and stabilized by refrigeration at 4° C. After the first harvest, continuous treatment started in two of the four reactors. In the time between the continuous switch and the first partial harvest, non-recycled continuous feed media was used to maintain pH on the continuous cultures through the pH auxostat.

## CC(=O)O [Acetic acid, acetic acid]
Acetic acid 5 g/L, 7 days
  bacterial growth in centrate (quantity not named in Table 4): 0.00
Acetic acid 5 g/L, 14 days
  bacterial growth in centrate (quantity not named in Table 4): 0.00
Acetic acid 5 g/L, 21 days
  bacterial growth in centrate (quantity not named in Table 4): 0.00
Acetic acid 10 g/L, 7 days
  bacterial growth in centrate (quantity not named in Table 4): 0.00
Acetic acid 10 g/L, 14 days
  bacterial growth in centrate (quantity not named in Table 4): 0.00
Acetic acid 10 g/L, 21 days
  bacterial growth in centrate (quantity not named in Table 4): 0.00
Acetic acid 15 g/L, 7 days
  bacterial growth in centrate (quantity not named in Table 4): 0.00
Acetic acid 15 g/L, 14 days
  bacterial growth in centrate (quantity not named in Table 4): 0.00
Acetic acid 15 g/L, 21 days
  bacterial growth in centrate (quantity not named in Table 4): 0.00
Addition of at least 5 g/L acetic acid
  period for which the centrate could be stabilized: > 21 days
Treatments of 5 g/L acetic acid and above, up to 21 days
  bacterial growth: No bacterial growth was observed
